From publication PMC4623880 (Digestive diseases and sciences, 2015)
Entries after “also recorded” stand apart in the source; their conditions may differ. Where two headings read alike, the source gives them in different places. Each block holds one compound with its values, some of them ahead of it.

How the values were obtained:
[1] = cited from earlier work
[2] = type: in vivo, human; settings: for Cmax: N-desmethyl sildenafil, after 2.5 mg IV bolus sildenafil; for observed maximum concentration of plasma sildenafil: 2.5 mg IV bolus
[3] = healthy volunteers; cited from earlier work
[4] = Tolerability and hemodynamics; type: in vivo, human; settings: for tolerability / safety of IV sildenafil: both subjects, single 2.5 mg IV bolus injection
[5] = subject 1, 16 min after 2.5 mg IV bolus sildenafil
[6] = subject 1, 30 min after 2.5 mg IV bolus sildenafil
[7] = subject 1, 60 min after 2.5 mg IV bolus sildenafil
[8] = subject 1, 120 min after 2.5 mg IV bolus sildenafil
[9] = subject 1, 178 min after 2.5 mg IV bolus sildenafil
[10] = subject 1, 242 min after 2.5 mg IV bolus sildenafil
[11] = subject 1, 360 min after 2.5 mg IV bolus sildenafil
[12] = subject 1, 480 min after 2.5 mg IV bolus sildenafil
[13] = subject 2, 15 min after 2.5 mg IV bolus sildenafil
[14] = subject 2, 30 min after 2.5 mg IV bolus sildenafil
[15] = subject 2, 60 min after 2.5 mg IV bolus sildenafil
[16] = subject 2, 122 min after 2.5 mg IV bolus sildenafil
[17] = subject 2, 180 min after 2.5 mg IV bolus sildenafil
[18] = subject 2, 240 min after 2.5 mg IV bolus sildenafil
[19] = subject 2, 360 min after 2.5 mg IV bolus sildenafil
[20] = subject 2, 480 min after 2.5 mg IV bolus sildenafil

- Cmax ([2]; subject 1): 2.6 ng/mL
- Cmax ([2]; subject 2): 1.1 ng/mL
- N-desmethyl Sildenafil Concentration ([2]; plasma, subject 1, 16 min after 2.5 mg IV bolus sildenafil): 1.21 ng/mL
- N-desmethyl Sildenafil Concentration ([2]; plasma, subject 1, 30 min after 2.5 mg IV bolus sildenafil): BLQ
- N-desmethyl Sildenafil Concentration ([2]; plasma, subject 1, 60 min after 2.5 mg IV bolus sildenafil): 2.26 ng/mL
- N-desmethyl Sildenafil Concentration ([2]; plasma, subject 1, 88 min after 2.5 mg IV bolus sildenafil): 2.10 ng/mL
- N-desmethyl Sildenafil Concentration ([2]; plasma, subject 1, 120 min after 2.5 mg IV bolus sildenafil): 2.49 ng/mL
- N-desmethyl Sildenafil Concentration ([2]; plasma, subject 1, 178 min after 2.5 mg IV bolus sildenafil): 2.64 ng/mL
- N-desmethyl Sildenafil Concentration ([2]; plasma, subject 1, 242 min after 2.5 mg IV bolus sildenafil): 2.19 ng/mL
- N-desmethyl Sildenafil Concentration ([2]; plasma, subject 1, 360 min after 2.5 mg IV bolus sildenafil): 2.00 ng/mL
- N-desmethyl Sildenafil Concentration ([2]; plasma, subject 1, 480 min after 2.5 mg IV bolus sildenafil): 1.53 ng/mL
- N-desmethyl Sildenafil Concentration ([2]; plasma, subject 2, 15 min after 2.5 mg IV bolus sildenafil): BLQ
- N-desmethyl Sildenafil Concentration ([2]; plasma, subject 2, 30 min after 2.5 mg IV bolus sildenafil): BLQ
- N-desmethyl Sildenafil Concentration ([2]; plasma, subject 2, 60 min after 2.5 mg IV bolus sildenafil): BLQ
- N-desmethyl Sildenafil Concentration ([2]; plasma, subject 2, 90 min after 2.5 mg IV bolus sildenafil): BLQ
- N-desmethyl Sildenafil Concentration ([2]; plasma, subject 2, 122 min after 2.5 mg IV bolus sildenafil): BLQ
- N-desmethyl Sildenafil Concentration ([2]; plasma, subject 2, 180 min after 2.5 mg IV bolus sildenafil): 1.06 ng/mL
- N-desmethyl Sildenafil Concentration ([2]; plasma, subject 2, 240 min after 2.5 mg IV bolus sildenafil): BLQ
- N-desmethyl Sildenafil Concentration ([2]; plasma, subject 2, 360 min after 2.5 mg IV bolus sildenafil): BLQ
- N-desmethyl Sildenafil Concentration ([2]; plasma, subject 2, 480 min after 2.5 mg IV bolus sildenafil): BLQ
- metabolite concentrations ([2]; plasma, subject 2, all times except 180 minutes after sildenafil injection): unmeasurable
Structure (SMILES): CCCc1nn(C)c2c(=O)[nH]c(-c3cc(S(=O)(=O)N4CCNCC4)ccc3OCC)nc12 [N-desmethyl Sildenafil, N-desmethyl sildenafil]
- N-desmethyl sildenafil AUC increased compared to healthy subjects ([1]; CTP class A and B cirrhosis): 154%
- mean Cmax of N-desmethyl sildenafil increased compared to normal controls ([1]; CTP class A and B cirrhosis): 87%
- N-desmethyl sildenafil AUC/sildenafil AUC ([1]; healthy subjects): 52%
- N-desmethyl sildenafil AUC/sildenafil AUC ([1]; subjects with CTP Class A and B cirrhosis): 71%

- clearance lower than mean in healthy volunteers ([2]; second value, for CL 14.9 L/hr vs 40.8 L/hr): 71%
- observed maximum concentration of plasma sildenafil ([2]; subject 1 (first value)): 35 ng/mL
- observed maximum concentration of plasma sildenafil ([2]; subject 2 (second value)): 20.6 ng/mL
Structure (SMILES): CCCc1nn(C)c2c(=O)[nH]c(-c3cc(S(=O)(=O)N4CCN(C)CC4)ccc3OCC)nc12 [Sildenafil, sildenafil]
- mean clearance of sildenafil reduced compared to normal controls ([1]; CTP class A and B cirrhosis, single 50 mg oral dose): 46%
- dose-corrected mean Cmax [3]: 26.6 ng/mL
- mean half-life [3]: 3.9 h
- tolerability / safety of IV sildenafil [4]: without side effects
- tolerability / safety of IV sildenafil ([4]; listed as sildenafil): without adverse events; also recorded: safe and tolerable; also recorded: can be safely administered
- adverse events reported at interview ([4]; forty-eight hours after sildenafil injection): did not report any adverse events
- Heart Rate [4, 5]: 53
- Mean Arterial Pressure [4, 5]: 75 mmHg
- Heart Rate [4, 6]: 53
- Mean Arterial Pressure [4, 6]: 78 mmHg
- Heart Rate [4, 7]: 55
- Mean Arterial Pressure [4, 7]: 78 mmHg
- Heart Rate [4, 8]: 51
- Mean Arterial Pressure [4, 8]: 75 mmHg
- Heart Rate [4, 9]: 50
- Mean Arterial Pressure [4, 9]: 79 mmHg
- Heart Rate [4, 10]: 50
- Mean Arterial Pressure [4, 10]: 78 mmHg
- Heart Rate [4, 11]: 53
- Mean Arterial Pressure [4, 11]: 83 mmHg
- Heart Rate [4, 12]: 54
- Mean Arterial Pressure [4, 12]: 83 mmHg
- lowest MAP observed ([4]; subject 1, at 16 and 120 minutes after sildenafil injection): 75
- Heart Rate [4, 13]: 98
- Mean Arterial Pressure [4, 13]: 69 mmHg
- Heart Rate [4, 14]: 98
- Mean Arterial Pressure [4, 14]: 73 mmHg
- Heart Rate [4, 15]: 98
- Mean Arterial Pressure [4, 15]: 75 mmHg
- Heart Rate [4, 16]: 90
- Mean Arterial Pressure [4, 16]: 81 mmHg
- Heart Rate [4, 17]: 97
- Mean Arterial Pressure [4, 17]: 80 mmHg
- Heart Rate [4, 18]: 93
- Mean Arterial Pressure [4, 18]: 75 mmHg
- Heart Rate [4, 19]: 92
- Mean Arterial Pressure [4, 19]: 72 mmHg
- Heart Rate [4, 20]: 94
- Mean Arterial Pressure [4, 20]: 75 mmHg
- lowest MAP ([4]; subject 2, at 15 minutes after sildenafil injection): 69 mmHg
- adverse events ([4]; up to 9 hours after sildenafil injection): No adverse events
